We go through nine molecules from ChEMBL document CHEMBL4130362, “Structure-based design, synthesis, and evaluation of 4,5,6,7-tetrahydro-1H-pyrazolo[4,3-c]pyridine derivatives as novel c-Met inhibitors” (Eur J Med Chem, 2017).

Data set [1] has as its target T1, Hepatocyte growth factor receptor (Homo sapiens, UniProt P08581). The data set is described as follows: Inhibition of human GST-tagged c-MET preincubated for 20 mins followed by [33P]-ATP addition measured after 2 hrs by Hot-SpotSM kinase assay.
Data set [2] has as its system EBC-1. The data set is described as follows: Cytotoxicity against human EBC1 cells assessed as decrease in cell viability after 72 hrs by Cell Titer-Glo assay. In kind it is functional. Background: In ATP-based viability assays light output follows the ATP content of the culture.
The test system of data set [3] is MKN-45. The data set is described as follows: Cytotoxicity against human MKN45 cells assessed as decrease in cell viability after 72 hrs by Cell Titer-Glo assay. In kind it is functional.
Data set [4] has as its system PC-3. Description: Cytotoxicity against human PC3 cells assessed as decrease in cell viability after 72 hrs by Cell Titer-Glo assay. It is filed as functional.
Data set [5] addresses T1, Hepatocyte growth factor receptor. Description: Inhibition of human GST-tagged c-MET at 3 uM preincubated for 20 mins followed by [33P]-ATP addition measured after 2 hrs by Hot-SpotSM kinase assay.
Data set [6] deals with Epidermal growth factor receptor (Homo sapiens) (UniProt P00533). Description: Inhibition of human GST-tagged EGFR at 3 uM preincubated for 20 mins followed by [33P]-ATP addition measured after 2 hrs by Hot-SpotSM kinase assay.
For data set [7], the target named is Receptor-type tyrosine-protein kinase FLT3 (Homo sapiens) (UniProt P36888). Description: Inhibition of human GST-tagged FLT3 at 3 uM preincubated for 20 mins followed by [33P]-ATP addition measured after 2 hrs by Hot-SpotSM kinase assay.
Data set [8] deals with Vascular endothelial growth factor receptor 2 (Homo sapiens) (UniProt P35968). The data set is described as follows: Inhibition of human GST-tagged VEGFR2 at 3 uM preincubated for 20 mins followed by [33P]-ATP addition measured after 2 hrs by Hot-SpotSM kinase assay.
Data set [9] addresses Platelet-derived growth factor receptor alpha (Homo sapiens) (UniProt P16234). The data set is described as follows: Inhibition of human GST-tagged PDGFRalpha at 3 uM preincubated for 20 mins followed by [33P]-ATP addition measured after 2 hrs by Hot-SpotSM kinase assay.
For data set [10], the target named is Proto-oncogene tyrosine-protein kinase receptor Ret (Homo sapiens) (UniProt P07949). Description: Inhibition of human GST-tagged RET at 3 uM preincubated for 20 mins followed by [33P]-ATP addition measured after 2 hrs by Hot-SpotSM kinase assay.
The target of data set [11] is Macrophage-stimulating protein receptor (Homo sapiens) (UniProt Q04912). The data set is described as follows: Inhibition of human GST-tagged RON at 3 uM preincubated for 20 mins followed by [33P]-ATP addition measured after 2 hrs by Hot-SpotSM kinase assay.
In data set [12] the target is ALK tyrosine kinase receptor (Homo sapiens) (UniProt Q9UM73). Description: Inhibition of human GST-tagged ALK at 3 uM preincubated for 20 mins followed by [33P]-ATP addition measured after 2 hrs by Hot-SpotSM kinase assay.
ALK tyrosine kinase receptor (Homo sapiens), sequence (Q9UM73 19-1620 limits assumed): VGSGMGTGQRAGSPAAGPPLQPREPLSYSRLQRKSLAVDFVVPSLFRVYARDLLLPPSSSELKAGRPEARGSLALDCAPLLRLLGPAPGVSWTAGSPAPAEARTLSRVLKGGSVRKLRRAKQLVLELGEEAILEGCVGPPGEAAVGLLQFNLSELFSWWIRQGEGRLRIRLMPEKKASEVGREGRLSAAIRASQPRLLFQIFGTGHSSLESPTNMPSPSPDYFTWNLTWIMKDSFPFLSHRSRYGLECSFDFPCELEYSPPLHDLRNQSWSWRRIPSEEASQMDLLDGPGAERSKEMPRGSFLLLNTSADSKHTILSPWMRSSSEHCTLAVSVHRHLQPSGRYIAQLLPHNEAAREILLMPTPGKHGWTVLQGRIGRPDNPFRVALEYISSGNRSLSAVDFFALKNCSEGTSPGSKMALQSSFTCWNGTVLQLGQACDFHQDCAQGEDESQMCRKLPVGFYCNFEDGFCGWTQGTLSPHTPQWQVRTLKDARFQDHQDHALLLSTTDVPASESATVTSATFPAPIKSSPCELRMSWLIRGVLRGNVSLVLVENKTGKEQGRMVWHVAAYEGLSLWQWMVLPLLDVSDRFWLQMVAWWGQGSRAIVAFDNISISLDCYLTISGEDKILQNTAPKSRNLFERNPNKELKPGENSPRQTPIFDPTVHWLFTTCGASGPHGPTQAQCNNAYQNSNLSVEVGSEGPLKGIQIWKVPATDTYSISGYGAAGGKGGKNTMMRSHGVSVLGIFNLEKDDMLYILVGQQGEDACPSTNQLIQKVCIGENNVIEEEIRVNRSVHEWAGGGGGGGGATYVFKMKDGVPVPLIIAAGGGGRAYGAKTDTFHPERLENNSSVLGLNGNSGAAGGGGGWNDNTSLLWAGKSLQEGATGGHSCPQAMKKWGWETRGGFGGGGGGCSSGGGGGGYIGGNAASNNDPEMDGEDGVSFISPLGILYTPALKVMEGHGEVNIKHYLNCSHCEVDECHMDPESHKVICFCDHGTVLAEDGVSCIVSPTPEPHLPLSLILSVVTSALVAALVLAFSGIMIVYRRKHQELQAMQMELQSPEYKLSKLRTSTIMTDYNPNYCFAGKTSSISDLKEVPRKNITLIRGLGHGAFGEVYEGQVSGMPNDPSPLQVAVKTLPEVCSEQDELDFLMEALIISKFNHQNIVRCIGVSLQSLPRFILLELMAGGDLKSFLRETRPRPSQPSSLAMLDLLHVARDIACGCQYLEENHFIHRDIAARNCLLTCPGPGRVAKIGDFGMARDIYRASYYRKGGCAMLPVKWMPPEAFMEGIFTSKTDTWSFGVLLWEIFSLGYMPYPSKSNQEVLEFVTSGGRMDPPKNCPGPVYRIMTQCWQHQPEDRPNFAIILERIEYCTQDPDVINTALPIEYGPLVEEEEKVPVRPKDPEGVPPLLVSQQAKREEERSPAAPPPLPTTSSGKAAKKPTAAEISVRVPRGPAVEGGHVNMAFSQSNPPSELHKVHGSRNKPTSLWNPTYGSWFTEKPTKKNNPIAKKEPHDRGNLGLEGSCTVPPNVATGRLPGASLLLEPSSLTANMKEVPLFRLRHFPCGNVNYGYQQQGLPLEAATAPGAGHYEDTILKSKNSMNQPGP
For data set [13], the system named is Hepatocyte growth factor receptor (Homo sapiens), P08581 [Y1230C]. The data set is described as follows: Inhibition of human GST-tagged c-MET Y1230C mutant at 3 uM preincubated for 20 mins followed by [33P]-ATP addition measured after 2 hrs by Hot-SpotSM kinase assay.
The subject of data set [14] is Hepatocyte growth factor receptor (Homo sapiens), P08581 [Y1230H]. Description: Inhibition of human GST-tagged c-MET Y1230H mutant at 3 uM preincubated for 20 mins followed by [33P]-ATP addition measured after 2 hrs by Hot-SpotSM kinase assay.
For data set [15], the target named is T2, Receptor-type tyrosine-protein kinase FLT3 (Homo sapiens, UniProt P36888).
T2 sequence (P36888 whole entry): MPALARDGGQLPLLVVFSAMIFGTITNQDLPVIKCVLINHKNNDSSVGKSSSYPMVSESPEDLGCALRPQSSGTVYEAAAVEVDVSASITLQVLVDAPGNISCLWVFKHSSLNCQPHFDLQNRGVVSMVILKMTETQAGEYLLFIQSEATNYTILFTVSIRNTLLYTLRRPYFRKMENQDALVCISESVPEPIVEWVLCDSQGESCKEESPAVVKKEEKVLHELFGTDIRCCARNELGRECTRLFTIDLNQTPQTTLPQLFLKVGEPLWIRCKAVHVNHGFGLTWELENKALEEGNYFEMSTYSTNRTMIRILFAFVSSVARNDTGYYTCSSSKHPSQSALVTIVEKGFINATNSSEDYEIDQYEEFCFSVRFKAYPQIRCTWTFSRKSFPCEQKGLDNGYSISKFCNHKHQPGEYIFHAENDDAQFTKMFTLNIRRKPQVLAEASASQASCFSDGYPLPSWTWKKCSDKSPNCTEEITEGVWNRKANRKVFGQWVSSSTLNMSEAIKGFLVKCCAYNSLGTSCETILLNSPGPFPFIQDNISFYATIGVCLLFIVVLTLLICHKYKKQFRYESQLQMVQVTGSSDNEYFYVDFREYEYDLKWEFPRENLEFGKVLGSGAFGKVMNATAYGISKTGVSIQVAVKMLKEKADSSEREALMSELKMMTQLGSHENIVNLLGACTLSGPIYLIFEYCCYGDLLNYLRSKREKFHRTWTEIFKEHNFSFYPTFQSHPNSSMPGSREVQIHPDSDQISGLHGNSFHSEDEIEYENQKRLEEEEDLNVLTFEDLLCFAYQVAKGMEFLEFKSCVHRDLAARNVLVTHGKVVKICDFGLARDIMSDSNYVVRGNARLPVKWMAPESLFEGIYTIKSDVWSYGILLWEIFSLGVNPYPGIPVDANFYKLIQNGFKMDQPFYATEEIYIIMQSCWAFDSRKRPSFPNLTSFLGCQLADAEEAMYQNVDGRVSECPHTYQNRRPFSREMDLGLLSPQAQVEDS
Description: Inhibition of human GST-tagged FLT3 preincubated for 20 mins followed by [33P]-ATP addition measured after 2 hrs by Hot-SpotSM kinase assay.

The target in data set [16] is T1, Hepatocyte growth factor receptor. Description: Inhibition of HGF-induced c-MET phosphorylation at Tyr1234/1235 in human MKN45 cells after 1 hr by Western blot analysis. It is filed as cell-based. In general terms: A western blot detects proteins with antibodies after separation by electrophoresis.
For data set [17], the system named is PC-3. Description: Cytotoxicity against human PC3 cells assessed as decrease in cell viability at 25 uM after 72 hrs by Cell Titer-Glo assay relative to control. In kind it is functional.
In data set [18] the test system is HFL1. Description: Cytotoxicity against human HFL1 cells assessed as decrease in cell viability at 50 uM after 72 hrs by Cell Titer-Glo assay. In kind it is cell-based. To be noted: hfl1, 72 h.
Data set [19] concerns EBC-1. Description: Cytotoxicity against human EBC1 cells assessed as decrease in cell viability at 25 uM after 72 hrs by Cell Titer-Glo assay relative to control. It is filed as functional.

T1 sequence (P08581 whole entry): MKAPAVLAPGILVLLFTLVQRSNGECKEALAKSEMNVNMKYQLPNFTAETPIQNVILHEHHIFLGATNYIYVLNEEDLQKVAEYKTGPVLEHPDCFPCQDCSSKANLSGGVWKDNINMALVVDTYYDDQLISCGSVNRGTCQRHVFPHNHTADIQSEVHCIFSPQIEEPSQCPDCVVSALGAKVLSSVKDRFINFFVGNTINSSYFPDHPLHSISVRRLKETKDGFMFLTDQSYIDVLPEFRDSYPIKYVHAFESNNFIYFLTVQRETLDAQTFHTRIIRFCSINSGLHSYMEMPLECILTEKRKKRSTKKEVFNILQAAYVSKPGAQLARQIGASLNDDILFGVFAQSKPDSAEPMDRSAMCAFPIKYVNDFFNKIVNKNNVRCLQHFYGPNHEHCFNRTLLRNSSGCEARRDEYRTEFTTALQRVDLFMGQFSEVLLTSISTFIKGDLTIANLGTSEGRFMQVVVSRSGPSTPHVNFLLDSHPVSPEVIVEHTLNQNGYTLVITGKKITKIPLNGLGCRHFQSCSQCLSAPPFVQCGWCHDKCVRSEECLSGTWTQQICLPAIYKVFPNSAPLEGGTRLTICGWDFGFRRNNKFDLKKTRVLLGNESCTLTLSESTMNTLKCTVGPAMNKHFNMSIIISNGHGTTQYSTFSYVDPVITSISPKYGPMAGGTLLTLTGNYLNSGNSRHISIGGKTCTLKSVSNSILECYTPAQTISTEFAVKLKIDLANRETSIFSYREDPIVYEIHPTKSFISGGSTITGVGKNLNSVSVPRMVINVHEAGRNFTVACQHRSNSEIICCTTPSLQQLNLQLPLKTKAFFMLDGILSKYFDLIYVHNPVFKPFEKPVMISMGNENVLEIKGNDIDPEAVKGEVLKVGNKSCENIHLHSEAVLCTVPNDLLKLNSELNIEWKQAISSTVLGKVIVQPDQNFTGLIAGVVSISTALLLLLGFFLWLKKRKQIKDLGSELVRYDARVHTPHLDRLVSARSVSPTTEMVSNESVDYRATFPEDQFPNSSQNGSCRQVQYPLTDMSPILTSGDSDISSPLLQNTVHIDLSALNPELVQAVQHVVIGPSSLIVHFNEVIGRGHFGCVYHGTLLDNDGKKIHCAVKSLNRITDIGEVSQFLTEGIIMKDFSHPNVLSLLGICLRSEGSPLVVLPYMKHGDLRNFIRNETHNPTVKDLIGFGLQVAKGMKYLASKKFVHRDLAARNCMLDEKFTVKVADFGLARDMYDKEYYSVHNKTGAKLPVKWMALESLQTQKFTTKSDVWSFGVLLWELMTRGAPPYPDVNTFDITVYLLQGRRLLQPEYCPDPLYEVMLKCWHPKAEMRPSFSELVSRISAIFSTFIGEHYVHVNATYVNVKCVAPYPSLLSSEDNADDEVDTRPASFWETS
Hepatocyte growth factor receptor (Homo sapiens), P08581 [Y1230H], sequence (P08581 whole entry Y1230H): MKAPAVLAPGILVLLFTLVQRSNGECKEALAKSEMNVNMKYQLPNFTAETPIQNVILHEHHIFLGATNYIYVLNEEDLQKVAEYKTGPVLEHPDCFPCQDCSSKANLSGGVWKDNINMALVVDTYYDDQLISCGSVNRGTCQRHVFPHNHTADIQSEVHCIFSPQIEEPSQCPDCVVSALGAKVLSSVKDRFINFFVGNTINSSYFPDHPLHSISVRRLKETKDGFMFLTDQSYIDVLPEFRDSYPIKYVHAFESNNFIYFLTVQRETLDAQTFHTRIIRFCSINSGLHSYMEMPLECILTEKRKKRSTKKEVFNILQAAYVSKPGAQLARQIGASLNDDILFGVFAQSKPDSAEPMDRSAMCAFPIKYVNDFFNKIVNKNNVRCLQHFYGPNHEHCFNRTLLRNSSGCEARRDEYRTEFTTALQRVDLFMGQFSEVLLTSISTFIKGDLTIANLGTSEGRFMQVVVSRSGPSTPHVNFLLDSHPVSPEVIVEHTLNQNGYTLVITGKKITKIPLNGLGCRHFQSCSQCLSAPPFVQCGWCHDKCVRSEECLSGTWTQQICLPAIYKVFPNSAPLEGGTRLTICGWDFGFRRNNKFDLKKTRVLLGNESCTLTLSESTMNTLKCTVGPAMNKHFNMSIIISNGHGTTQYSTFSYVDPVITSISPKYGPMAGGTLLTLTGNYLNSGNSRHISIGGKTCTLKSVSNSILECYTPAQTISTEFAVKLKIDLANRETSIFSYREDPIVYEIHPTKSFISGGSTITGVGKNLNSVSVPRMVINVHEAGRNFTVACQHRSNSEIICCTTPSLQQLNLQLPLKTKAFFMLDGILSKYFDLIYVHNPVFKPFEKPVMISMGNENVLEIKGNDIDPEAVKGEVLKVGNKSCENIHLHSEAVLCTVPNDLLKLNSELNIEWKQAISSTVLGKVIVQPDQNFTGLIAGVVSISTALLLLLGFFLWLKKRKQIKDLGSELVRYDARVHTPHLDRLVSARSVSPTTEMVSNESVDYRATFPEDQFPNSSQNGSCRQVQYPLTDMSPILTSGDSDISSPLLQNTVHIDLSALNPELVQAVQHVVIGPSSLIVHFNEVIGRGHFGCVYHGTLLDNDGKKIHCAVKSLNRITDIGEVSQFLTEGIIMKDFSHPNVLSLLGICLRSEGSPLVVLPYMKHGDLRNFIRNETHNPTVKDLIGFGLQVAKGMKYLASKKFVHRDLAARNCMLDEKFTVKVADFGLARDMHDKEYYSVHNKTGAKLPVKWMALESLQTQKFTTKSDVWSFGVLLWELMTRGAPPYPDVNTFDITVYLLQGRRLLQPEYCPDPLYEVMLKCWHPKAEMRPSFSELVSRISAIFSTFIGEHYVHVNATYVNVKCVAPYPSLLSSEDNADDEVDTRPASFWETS

What is called IC50 is the concentration that gives 50% inhibition. Lower therefore signals inhibition by little substance. The molecule `CC(=O)N1CCC(Nc2ccc(-c3n[nH]c4c3CN(S(=O)(=O)c3cccc5cccnc35)CC4)cc2)CC1` came in with a half-maximal inhibitory concentration (IC50) in [1] above 50000 nM.

`CC(=O)N1CCC(Nc2ccc(-c3n[nH]c4c3CN(S(=O)(=O)c3ccc(C)cc3)CC4)cc2)CC1`: the IC50 in [1] is above 50000 nM.

In the case of `O=C(NCCO)c1ccc(-c2n[nH]c3c2CN(S(=O)(=O)c2c(Cl)cccc2Cl)CC3)cc1`, the Activity in [2], in [3] and in data set [4] was above 25 µM each time.

The term inhibition denotes the change of the read-out against control, counted positive when it falls. Turning to `CN1CCC(Nc2ccc(-c3n[nH]c4c3CN(S(=O)(=O)c3c(Cl)cccc3Cl)CC4)cc2)CC1`, the IC50 in data set [1] was 68 nM; in data set [15] it was 124 nM. The inhibition in [5] was 17.6%; in data set [6], -5.68%; in data set [7], 97.8%; in data set [8], 26.9%; in data set [9], 41.1%; in [10] it was 33.5%. The inhibition was 27.4% in data set [11]; 55.6% in data set [12]; 14.9% in [13]; 7.16% in data set [14]; “Dose-dependent effect” in [16]. Further, the Activity in data set [2] came to 3.481 µM; in [3], 1.187 µM; in [17], 60.89%; in data set [18], 40.6%.

Turning to `C[C@@H](Oc1cc(-c2cnn(C3CCNCC3)c2)cnc1N)c1c(Cl)ccc(F)c1Cl` [CRIZOTINIB], the Activity in [2] was found to be 0.013 µM; in [3], 0.022 µM; in data set [4], 2.244 µM; in [18] it was 39.4%.

For the molecule `CC(=O)N1CCC(Nc2ccc(-c3n[nH]c4c3CN(S(=O)(=O)c3cccc5ccccc35)CC4)cc2)CC1`, in data set [1], the half-maximal inhibitory concentration (IC50) was above 50000 nM.

As to `CN1CCN(C(=O)c2ccc(-c3n[nH]c4c3CN(S(=O)(=O)c3c(Cl)cccc3Cl)CC4)cc2)CC1`, the Activity in data set [2] was 8.278 µM; in data set [3], 12.057 µM.

For `CC(=O)N1CCC(Nc2ccc(-c3n[nH]c4c3CN(S(=O)(=O)c3cccs3)CC4)cc2)CC1`, the Activity in data set [3] was above 25 µM; in data set [4], above 25 µM; in data set [19], 57.52%.

For the molecule `CC(=O)N1CCC(Nc2ccc(-c3n[nH]c4c3CN(S(=O)(=O)c3c(Cl)cccc3Cl)CC4)cc2)CC1`, the results for the Activity in data set [2], in data set [3] and in [4] were 11.478 µM, 12.02 µM and above 25 µM, respectively.
